Test results from article PMC3153577 (Biochemistry, 2011).
Where two headings read alike, the source gives them in different places.

Key:
MtDHFR = biological target: T1, MtDHFR (Mycobacterium tuberculosis, UniProt P9WNX1)
T1 sequence (P9WNX1 1-161): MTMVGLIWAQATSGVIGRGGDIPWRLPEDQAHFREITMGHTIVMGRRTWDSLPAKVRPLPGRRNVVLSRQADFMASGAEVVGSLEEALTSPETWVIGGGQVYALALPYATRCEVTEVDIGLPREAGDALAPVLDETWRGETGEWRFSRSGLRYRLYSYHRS

MtDHFR-NADPH = biological target: T2, MtDHFR-NADPH (Mycobacterium tuberculosis, UniProt P9WNX1); conditions: NADP^+ competition
T2 sequence (P9WNX1 1-161): T1 sequence (P9WNX1 1-161)

MtDHFR-NADP^+ = biological target: T3, MtDHFR-NADP^+ (Mycobacterium tuberculosis, UniProt P9WNX1); assay type: binding; conditions: for koff: competitor NADPH
T3 sequence (P9WNX1 1-161): T1 sequence (P9WNX1 1-161)

[1] = NADPH dissociation from MtDHFR-NADPH
[2] = NADPH dissociation from MtDHFR-NADPH-THF

Compound | k4, best-fit value – global fitting (MtDHFR; NADPH association to MtDHFR-THF, not determined experimentally) | k−10, best-fit value – global fitting (MtDHFR; [1]) | k−4, best-fit value – global fitting (MtDHFR; [2]) | k−4, value obtained by analytical fitting (MtDHFR-NADPH; [2]) | k−10, value obtained by analytical fitting (MtDHFR-NADPH; [1]) | k−3, best-fit value – global fitting (MtDHFR; NADP^+ association to MtDHFR-THF, not determined experimentally) | k−9, best-fit value – global fitting (MtDHFR; NADP^+ association to free enzyme, linked to k9 based on KNADP = 0.33 μM) | k9, best-fit value – global fitting (MtDHFR; NADP^+ dissociation from MtDHFR-NADP^+) | k12, best-fit value – global fitting (MtDHFR; NADP^+ dissociation from MtDHFR-NADP^+-DHF) | k3, best-fit value – global fitting (MtDHFR; NADP^+ dissociation from MtDHFR-NADP^+-THF) | k12, value obtained by analytical fitting (MtDHFR-NADP^+; NADP^+ dissociation from MtDHFR-NADP^+-DHF, NADPH competition) | k3, value obtained by analytical fitting (MtDHFR-NADP^+; NADP^+ dissociation from MtDHFR-NADP^+-THF, NADPH competition) | k9, value obtained by analytical fitting (MtDHFR-NADP^+; NADP^+ dissociation from MtDHFR-NADP^+, NADPH competition) | koff (MtDHFR-NADP^+; NADP^+ from MtDHFR-NADP^+-DHF) | koff (MtDHFR-NADP^+; NADP^+ from MtDHFR-NADP^+-THF) | koff (MtDHFR-NADP^+; NADP^+ from MtDHFR-NADP^+)
NC(=O)C1=CN([C@@H]2O[C@H](COP(=O)(O)OP(=O)(O)OC[C@H]3O[C@@H](n4cnc5c(N)ncnc54)[C@H](OP(=O)(O)O)[C@@H]3O)[C@@H](O)[C@H]2O)C=CC1 [NADPH, nicotinamide adenine dinucleotide phosphate (reduced form)] | 1.01e+08 M⁻¹ s⁻¹ | 0.08 ± 0.01 s⁻¹ | 1.1 ± 0.1 s⁻¹ | 1.7 ± 0.6 s⁻¹ | 0.13 ± 0.01 s⁻¹ | – | – | – | – | – | – | – | – | – | – | –
NC(=O)c1ccc[n+]([C@H]2O[C@@H](COP(=O)([O-])OP(=O)(O)OC[C@H]3O[C@@H](n4cnc5c(N)ncnc54)[C@H](OP(=O)(O)O)[C@@H]3O)[C@H](O)[C@@H]2O)c1 [NADP^+, nicotinamide adenine dinucleotide phosphate (oxidized form)] | – | – | – | – | – | 1.09e+08 ± 6e+06 M⁻¹ s⁻¹ | 2.68e+08 ± 7e+06 M⁻¹ s⁻¹ | 81 ± 2 s⁻¹ | 2.1 ± 0.2 s⁻¹ | 7.3 ± 0.1 s⁻¹ | 7.8 ± 0.1 s⁻¹ | 8.02 ± 0.02 s⁻¹ | 98 ± 4 s⁻¹ | 7.8 ± 0.1 s⁻¹ | 8.0 ± 0.1 s⁻¹ | 97.6 ± 4.1 s⁻¹
